Test results: patent US8912216B2, “Hetaryl-[1,8]naphthyridine derivatives” (Merck Patent GmbH, priority 2010, dated 2014)

Tests used:
GST-ALK5 = target: T1, GST-ALK5 (Homo sapiens, UniProt P36897); assay: In-vitro (enzyme) kinase assay, 384-well flashplate (Example 36); assay type: biochemical; conditions: GST-ALK5, GST-SMAD2 substrate, 3 mM ATP, 30° C., 45 min; read-out: TβR activity (Example 36)
T1 sequence (P36897 34-503): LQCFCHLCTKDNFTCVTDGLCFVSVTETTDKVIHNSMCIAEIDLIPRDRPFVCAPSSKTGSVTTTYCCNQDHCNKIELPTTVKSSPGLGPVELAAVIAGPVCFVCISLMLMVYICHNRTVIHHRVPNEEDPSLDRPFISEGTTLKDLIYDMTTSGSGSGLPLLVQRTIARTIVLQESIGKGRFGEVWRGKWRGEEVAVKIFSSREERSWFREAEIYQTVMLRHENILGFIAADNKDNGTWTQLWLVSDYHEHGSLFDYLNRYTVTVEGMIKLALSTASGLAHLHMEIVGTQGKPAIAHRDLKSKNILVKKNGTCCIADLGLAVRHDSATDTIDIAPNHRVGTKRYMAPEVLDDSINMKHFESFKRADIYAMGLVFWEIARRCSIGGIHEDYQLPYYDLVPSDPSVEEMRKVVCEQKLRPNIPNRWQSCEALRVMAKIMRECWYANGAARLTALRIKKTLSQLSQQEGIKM
Procedure, shortened: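 Radiometric flashplate assay: 31.2 nM GST-ALK5 phosphorylating 439 nM GST-SMAD2 with 3 mM ATP plus ³³P-ATP, in HEPES/MgCl2/MnCl2/DTT/BSA buffer pH 7.4, 45 min at 30 °C, 5-10 compound concentrations. EDTA stop, filtration and washing, then radioactivity counted; IC50 derived from the curve.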

[1] = system: TGF-beta-induced phosphorylation of Smad2 and Smad3 in Mv1-Lu cells; assay: Inhibition of Smad2/3 phosphorylation in Mv1Lu cells (Example 35A); assay type: cell-based, mink Mustela vison; conditions: Neogale vison, Mv1-Lu cells, TGF-beta 1 5 ng/ml, phospho-Smad2/3 ELISA, read-out: TβR activity (Example 35A)
Procedure, shortened: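 Serum-starved (16-20 h) Mv1-Lu mink lung epithelial cells were pre-incubated 1.5 h with compound dilutions (0.2% DMSO), then stimulated 1 h with 5 ng/ml TGF-beta 1. Phospho-Smad2 (Ser465/467)/Smad3 (Ser423/425) in lysates was measured by ELISA. IC50 came from dose-response fits between stimulated and unstimulated controls.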

IC50 (GST-ALK5) [nM] | IC50 [1] [nM] | SMILES
100 to 1000 | 100 to 1000 | CN1CCC(NC(=O)c2cccc(-c3cncc(-c4cc(-c5cc(Cl)ccc5F)nc5ncccc45)c3)c2)CC1 [compound 126, 3-{5-[2-(5-Chloro-2-fluoro-phenyl)-[1,8]naphthyridin-4-yl]-pyridin-3-yl}-N-(1-methyl-piperidin-4-yl)-benzamide]
1000 to 10000 | > 10000 | CNC(=O)c1cccc(-c2cncc(-c3cc(-c4cc(Cl)ccc4F)nc4ncccc34)c2)n1 [compound 127, 5′-[2-(5-Chloro-2-fluoro-phenyl)-[1,8]naphthyridin-4-yl]-[2,3′]bipyridinyl-6-carboxylic acid methylamide]
1000 to 10000 | 1000 to 10000 | Cc1ccn(-c2cc(-c3cncc(-c4ccc(N5CCN(C)CC5)cc4)c3)c3cccnc3n2)n1 [compound 128, 4-{5-[4-(4-Methyl-piperazin-1-yl)-phenyl]-pyridin-3-yl}-2-(3-methyl-pyrazol-1-yl)-[1,8]naphthyridine]
> 10000 | > 10000 | Nc1cccnc1-c1cncc(-c2cc(-c3cc(Cl)ccc3F)nc3ncccc23)c1 [compound 129, 5′-[2-(5-Chloro-2-fluoro-phenyl)-[1,8]naphthyridin-4-yl]-[2,3′]bipyridinyl-3-ylamine]
1000 to 10000 | 1000 to 10000 | CN1CCN(c2ccc(-c3cnnc(-c4cc(-c5cc(Cl)ccc5F)nc5ncccc45)c3)cc2)CC1 [compound 130, 2-(5-Chloro-2-fluoro-phenyl)-4-{5-[4-(4-methyl-piperazin-1-yl)-phenyl]-pyridazin-3-yl}-[1,8]naphthyridine]
< 100 | 100 to 1000 | O=C1COc2ccc(-c3cncc(-c4cc(-c5cc(Cl)ccc5F)nc5ncccc45)c3)cc2N1 [compound 131, 6-{5-[2-(5-Chloro-2-fluoro-phenyl)-[1,8]naphthyridin-4-yl]-pyridin-3-yl}-4H-benzo[1,4]oxazin-3-one]
< 100 | < 100 | CN1CCN(c2ccnc(-c3cncc(-c4cc(-c5cc(Cl)ccc5F)nc5ncccc45)c3)c2)CC1 [compound 132, 2-(5-Chloro-2-fluoro-phenyl)-4-[4-(4-methyl-piperazin-1-yl)-[2,3′]bipyridinyl-5′-yl]-[1,8]naphthyridine]
> 10000 | > 10000 | N#Cc1ccnc(-c2cncc(-c3cc(-c4cc(Cl)ccc4F)nc4ncccc34)c2)c1 [compound 133, 5′-[2-(5-Chloro-2-fluoro-phenyl)-[1,8]naphthyridin-4-yl]-[2,3′]bipyridinyl-4-carbonitrile]
100 to 1000 | < 100 | Fc1ccc(Cl)cc1-c1cc(-c2cncc(-c3ccc4c(c3)OCCO4)c2)c2cccnc2n1 [compound 134, 2-(5-Chloro-2-fluoro-phenyl)-4-[5-(2,3-dihydro-benzo[1,4]dioxin-6-yl)-pyridin-3-yl]-[1,8]naphthyridine]
< 100 | 100 to 1000 | NS(=O)(=O)c1cccc(-c2cncc(-c3cc(-c4cc(Cl)ccc4F)nc4ncccc34)c2)c1 [compound 135, 3-{5-[2-(5-Chloro-2-fluoro-phenyl)-[1,8]naphthyridin-4-yl]-pyridin-3-yl}-benzene-sulfonamide]
< 100 | < 100 | Fc1ccc(Cl)cc1-c1cc(-c2cncc(-c3ccc4c(c3)CNCC4)c2)c2cccnc2n1 [compound 136, 2-(5-Chloro-2-fluoro-phenyl)-4-[5-(1,2,3,4-tetrahydro-isoquinolin-7-yl)-pyridin-3-yl]-[1,8]naphthyridine]
1000 to 10000 | > 10000 | Fc1ccc(F)c(-c2cc(-c3cccnc3)c3cccnc3n2)c1 [compound 137, 2-(2,5-Difluoro-phenyl)-4-pyridin-3-yl-[1,8]naphthyridine]
< 100 | 100 to 1000 | NC(=O)COc1ccc(-c2cncc(-c3cc(-c4cc(Cl)ccc4F)nc4ncccc34)c2)cc1 [compound 138, 2-(4-{5-[2-(5-Chloro-2-fluoro-phenyl)-[1,8]naphthyridin-4-yl]-pyridin-3-yl}-phenoxy)-acetamide]
< 100 | < 100 | CN(C)CCCOc1ccc(-c2cncc(-c3cc(-c4cc(Cl)ccc4F)nc4ncccc34)c2)cc1 [compound 139, [3-(4-{5-[2-(5-Chloro-2-fluoro-phenyl)-[1,8]naphthyridin-4-yl]-pyridin-3-yl}-phenoxy)-propyl]-dimethyl-amine]
100 to 1000 | 1000 to 10000 | CN1CCN(c2ccc(-c3cncc(-c4cc(-c5cc(F)ccc5F)nc5ncccc45)c3)nn2)CC1 [compound 140, 2-(2,5-Difluoro-phenyl)-4-{5-[6-(4-methyl-piperazin-1-yl)-pyridazin-3-yl]-pyridin-3-yl}-[1,8]naphthyridine]
100 to 1000 | 100 to 1000 | CN1CCN(c2cccc(-c3cncc(-c4cc(-c5cc(Cl)ccc5F)nc5ncccc45)c3)n2)CC1 [compound 141, 2-(5-Chloro-2-fluoro-phenyl)-4-[6-(4-methyl-piperazin-1-yl)-[2,3′]bipyridinyl-5′-yl]-[1,8]naphthyridine]
< 100 | 100 to 1000 | NCCOc1cccc(-c2cncc(-c3cc(-c4cc(Cl)ccc4F)nc4ncccc34)c2)c1 [compound 143, 2-(3-{5-[2-(5-Chloro-2-fluoro-phenyl)-[1,8]naphthyridin-4-yl]-pyridin-3-yl}-phenoxy)-ethylamine]
< 100 | 100 to 1000 | Fc1ccc(F)c(-c2cc(-c3cncc(-c4cccc(OC5CCNCC5)c4)c3)c3cccnc3n2)c1 [compound 144, 2-(2,5-Difluoro-phenyl)-4-{5-[3-(piperidin-4-yloxy)-phenyl]-pyridin-3-yl}-[1,8]naphthyridine]
100 to 1000 | 1000 to 10000 | O=S(=O)(c1cccc(-c2cncc(-c3cc(-c4cc(Cl)ccc4F)nc4ncccc34)c2)c1)N1CCNCC1 [compound 145, 2-(5-Chloro-2-fluoro-phenyl)-4-{5-[3-(piperazine-1-sulfonyl)-phenyl]-pyridin-3-yl}-[1,8]naphthyridine]
100 to 1000 | 100 to 1000 | CC1(C)CCNc2ccc(-c3cncc(-c4cc(-c5cc(Cl)ccc5F)nc5ncccc45)c3)cc21 [compound 146, 2-(5-Chloro-2-fluoro-phenyl)-4-[5-(4,4-dimethyl-1,2,3,4-tetrahydro-quinolin-6-yl)-pyridin-3-yl]-[1,8]naphthyridine]
100 to 1000 | 1000 to 10000 | Fc1ccc(F)c(-c2cc(-c3cncc(-c4cccc(OCC5CCNCC5)c4)c3)c3cccnc3n2)c1 [compound 147, 2-(2,5-Difluoro-phenyl)-4-{5-[3-(piperidin-4-ylmethoxy)-phenyl]-pyridin-3-yl}-[1,8]naphthyridine]
< 100 | < 100 | Fc1ccc(F)c(-c2cc(-c3cncc(-c4cccc(OCCN5CCNCC5)c4)c3)c3cccnc3n2)c1 [compound 148, 2-(2,5-Difluoro-phenyl)-4-{5-[3-(2-piperazin-1-yl-ethoxy)-phenyl]-pyridin-3-yl}-[1,8]naphthyridine]
100 to 1000 | < 100 | CN1CCc2cc(-c3cncc(-c4cc(-c5cc(Cl)ccc5F)nc5ncccc45)c3)ccc21 [compound 149, 2-(5-Chloro-2-fluoro-phenyl)-4-[5-(1-methyl-2,3-dihydro-1H-indol-5-yl)-pyridin-3-yl]-[1,8]naphthyridine]
100 to 1000 | < 100 | Cn1ccc2cc(-c3cncc(-c4cc(-c5cc(Cl)ccc5F)nc5ncccc45)c3)ccc21 [compound 150, 2-(5-Chloro-2-fluoro-phenyl)-4-[5-(1-methyl-1H-indol-5-yl)-pyridin-3-yl]-[1,8]naphthyridine]
100 to 1000 | < 100 | Fc1ccc(Cl)cc1-c1cc(-c2cncc(-c3ccc4c(c3)NCCC4)c2)c2cccnc2n1 [compound 151, 2-(5-Chloro-2-fluoro-phenyl)-4-[5-(1,2,3,4-tetrahydro-quinolin-7-yl)-pyridin-3-yl]-[1,8]naphthyridine]
1000 to 10000 | 1000 to 10000 | NCCc1ccccc1-c1cncc(-c2cc(-c3cc(Cl)ccc3F)nc3ncccc23)c1 [compound 152, 2-(2-{5-[2-(5-Chloro-2-fluoro-phenyl)-[1,8]naphthyridin-4-yl]-pyridin-3-yl}-phenyl)-ethylamine]
< 100 | < 100 | Fc1ccc(Cl)cc1-c1cc(-c2cncc(-c3ccc(CCN4CCOCC4)cc3)c2)c2cccnc2n1 [compound 153, 2-(5-Chloro-2-fluoro-phenyl)-4-{5-[4-(2-morpholin-4-yl-ethyl)-phenyl]-pyridin-3-yl}-[1,8]naphthyridine]
100 to 1000 | 1000 to 10000 | Fc1ccc(Cl)cc1-c1cc(-c2cncc(-c3ccc4c(c3)CCN4)c2)c2cccnc2n1 [compound 154, 2-(5-Chloro-2-fluoro-phenyl)-4-[5-(2,3-dihydro-1H-indol-5-yl)-pyridin-3-yl]-[1,8]naphthyridine]
